Assay results as given in ChEMBL document CHEMBL1201862, “PubChem BioAssay data set” (2004).
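These data come from cells grown in 96-well plates and exposed to compound for 48 hours at five concentrations. Abbreviation: GI50, concentration required for 50% inhibition of growth.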 Active and inactive are the calls of the source. No stated cut-off is given here; in the data, active = GI50 up to about 1.1 µM and inactive = higher.

Experiments:
Assay in all cases: NCI anticancer screen, dose series, 48 h
MCF7 = test system: MCF7
HT-29 = test system: HT-29
HOP-62 = test system: HOP-62
Malme-3M = test system: Malme-3M
SF-268 = test system: SF-268
UACC-257 = test system: UACC-257
NCI-H522 = test system: NCI-H522
TK-10 = test system: TK-10
ACHN = test system: ACHN
CCRF-CEM = test system: CCRF-CEM
UO-31 = test system: UO-31
OVCAR-5 = test system: OVCAR-5
OVCAR-3 = test system: OVCAR-3
Hs-578T = test system: Hs-578T
COLO 205 = test system: COLO 205
A498 = test system: A498
SNB-19 = test system: SNB-19
U-251 = test system: U-251
NCI/ADR-RES = test system: NCI/ADR-RES
RPMI-8226 = test system: RPMI-8226

| Compound | GI50 (MCF7) | GI50 (HT-29) | GI50 (HOP-62) | GI50 (Malme-3M) | GI50 (SF-268) | GI50 (UACC-257) | GI50 (NCI-H522) | GI50 (TK-10) | GI50 (ACHN) | GI50 (CCRF-CEM) | GI50 (UO-31) | GI50 (OVCAR-5) | GI50 (OVCAR-3) | GI50 (Hs-578T) | GI50 (COLO 205) | GI50 (A498) | GI50 (SNB-19) | GI50 (U-251) | GI50 (NCI/ADR-RES) | GI50 (RPMI-8226) |
| --- | --- | --- | --- | --- | --- | --- | --- | --- | --- | --- | --- | --- | --- | --- | --- | --- | --- | --- | --- | --- |
| O=C(O)COc1cccc2ccccc(=O)c12 | > 100 µM (inactive) | > 100 µM (inactive) | > 100 µM (inactive) | > 100 µM (inactive) | > 100 µM (inactive) | > 100 µM (inactive) | > 100 µM (inactive) | > 100 µM (inactive) | > 100 µM (inactive) | > 100 µM (inactive) | > 100 µM (inactive) | > 100 µM (inactive) | > 100 µM (inactive) | > 100 µM (inactive) | > 100 µM (inactive) | > 100 µM (inactive) | > 100 µM (inactive) | > 100 µM (inactive) | > 100 µM (inactive) |  |
| O=C1C(Br)=C(c2ccccc2)O/C1=C/C(=O)c1ccc(Br)cc1 | 36.7 µM (inactive) | 36.1 µM (inactive) | > 100 µM (inactive) | 58.2 µM (inactive) | 53.1 µM (inactive) |  | 16.9 µM (inactive) | 37.3 µM (inactive) | 38.5 µM (inactive) | 26.3 µM (inactive) | 28.8 µM (inactive) | > 100 µM (inactive) | 83.2 µM (inactive) | 50 µM (inactive) | > 100 µM (inactive) | > 100 µM (inactive) | > 100 µM (inactive) | 30.8 µM (inactive) |  | 19.1 µM (inactive) |
| O=C(C1OC1c1ccc(F)cc1)C12CC3CC(CC(C3)C1)C2 (stereo not drawn) | 22.2 µM (inactive) | 20.2 µM (inactive) | 27 µM (inactive) | 21.3 µM (inactive) | 22.4 µM (inactive) | 26.9 µM (inactive) | 17.4 µM (inactive) | 35.2 µM (inactive) | 30 µM (inactive) | 6.95 µM (inactive) | 20.9 µM (inactive) | 19.6 µM (inactive) | 14.9 µM (inactive) | 23.2 µM (inactive) | 16 µM (inactive) | 28.2 µM (inactive) | 33.4 µM (inactive) | 11.4 µM (inactive) | 21.2 µM (inactive) |  |
| CCC/N=C/c1cc(Cc2ccc(O)c(/C=N/CCC)c2)ccc1O | 2.36 µM (inactive) | 12.5 µM (inactive) | 14.1 µM (inactive) | 19.5 µM (inactive) | 3.8 µM (inactive) | 19.1 µM (inactive) | 20.6 µM (inactive) | 11.1 µM (inactive) | 20.7 µM (inactive) |  | 17.1 µM (inactive) | 18.4 µM (inactive) | 2.91 µM (inactive) | 16 µM (inactive) | 16.1 µM (inactive) | 2.37 µM (inactive) | 2.7 µM (inactive) | 2.64 µM (inactive) | 17.2 µM (inactive) |  |
| Cc1[nH]c(=O)c2oc3cc4ccccc4cc3c2c1C(=O)O | > 10 µM (inactive) | > 10 µM (inactive) |  | > 10 µM (inactive) | > 10 µM (inactive) | > 10 µM (inactive) | > 10 µM (inactive) | > 10 µM (inactive) | > 10 µM (inactive) |  | > 10 µM (inactive) | > 10 µM (inactive) | > 10 µM (inactive) | > 10 µM (inactive) |  |  | > 10 µM (inactive) | > 10 µM (inactive) | > 10 µM (inactive) |  |
| CCOc1cc(C2SCC(=O)N2c2ccc(Oc3ccc(Cl)cc3)c(Cl)c2)ccc1O (stereo not drawn) | 25.1 µM (inactive) | 17.1 µM (inactive) | 17.6 µM (inactive) | 17.1 µM (inactive) | 15.4 µM (inactive) | 17.5 µM (inactive) | 13.2 µM (inactive) | 17.6 µM (inactive) | 17.4 µM (inactive) | 13.7 µM (inactive) | 10 µM (inactive) | 20.2 µM (inactive) | 14 µM (inactive) | 17.3 µM (inactive) | 22.5 µM (inactive) |  | 17.8 µM (inactive) | 18.4 µM (inactive) | 17.7 µM (inactive) | 14.7 µM (inactive) |
| OCCOCn1nncc1Cn1ncc2c(SCc3ccccc3)ncnc21 | 49.3 µM (inactive) | 37.7 µM (inactive) | > 100 µM (inactive) | > 100 µM (inactive) | > 100 µM (inactive) | > 100 µM (inactive) | 42.8 µM (inactive) | > 100 µM (inactive) | > 100 µM (inactive) |  | 66.7 µM (inactive) | > 100 µM (inactive) | > 100 µM (inactive) | > 100 µM (inactive) | > 100 µM (inactive) | > 100 µM (inactive) | > 100 µM (inactive) | > 100 µM (inactive) | > 100 µM (inactive) |  |
| N#C/C(=C/n1c(=S)[nH]c2ccc([N+](=O)[O-])cc21)C(N)=O | > 100 µM (inactive) | > 100 µM (inactive) | > 100 µM (inactive) | > 100 µM (inactive) | > 100 µM (inactive) | > 100 µM (inactive) |  | > 100 µM (inactive) | > 100 µM (inactive) | > 100 µM (inactive) | > 100 µM (inactive) | > 100 µM (inactive) | > 100 µM (inactive) | > 100 µM (inactive) | > 100 µM (inactive) |  | > 100 µM (inactive) | > 100 µM (inactive) | > 100 µM (inactive) | > 100 µM (inactive) |
| CC(=O)c1cn(-c2ccc(Cl)cc2)c(=O)c2c(N)n[nH]c12 |  | > 100 µM (inactive) | > 100 µM (inactive) |  | > 100 µM (inactive) | > 100 µM (inactive) |  | > 100 µM (inactive) | 25.6 µM (inactive) | > 100 µM (inactive) | > 100 µM (inactive) |  |  | > 100 µM (inactive) | > 100 µM (inactive) | > 100 µM (inactive) | > 100 µM (inactive) | > 100 µM (inactive) | > 100 µM (inactive) | > 100 µM (inactive) |
| COc1cccc2c1OC(c1ccc(Cl)cc1)C([N+](=O)[O-])=C2 (stereo not drawn) | 1.2 µM (inactive) | 1.35 µM (inactive) | 2.1 µM (inactive) | 1.87 µM (inactive) | 3.18 µM (inactive) | 1.91 µM (inactive) | 1.59 µM (inactive) | 4.95 µM (inactive) | 1.46 µM (inactive) | 0.356 µM (active) | 1.77 µM (inactive) | 2.79 µM (inactive) | 2.54 µM (inactive) | 4.2 µM (inactive) | 2.19 µM (inactive) |  | 4.28 µM (inactive) | 2.38 µM (inactive) | 3.79 µM (inactive) | 1.52 µM (inactive) |
| COc1ccc(OC)c(/C=N/N=C2\C(=O)Nc3c(Cl)cc(Cl)cc32)c1 | 46.1 µM (inactive) | 63.4 µM (inactive) | 19 µM (inactive) | > 100 µM (inactive) |  | > 100 µM (inactive) |  | > 100 µM (inactive) | 52.4 µM (inactive) | 59.7 µM (inactive) | 41.6 µM (inactive) | > 100 µM (inactive) | 70.3 µM (inactive) | 20.4 µM (inactive) | > 100 µM (inactive) | 71.6 µM (inactive) | > 100 µM (inactive) | 38.7 µM (inactive) | 20.2 µM (inactive) |  |
| Cc1ccc(S(=O)(=O)NC2C(=O)c3ccccc3C(=O)C2n2ccnc2)cc1 (stereo not drawn) | > 100 µM (inactive) | > 100 µM (inactive) | > 100 µM (inactive) |  | > 100 µM (inactive) | > 100 µM (inactive) | < 0.01 µM (active) | > 100 µM (inactive) | > 100 µM (inactive) | 20 µM (inactive) | > 100 µM (inactive) | > 100 µM (inactive) | 42.5 µM (inactive) | > 100 µM (inactive) | 71 µM (inactive) |  | > 100 µM (inactive) | > 100 µM (inactive) | > 100 µM (inactive) | > 100 µM (inactive) |
| CC(=O)OC1CC2(C)C(OC(C)=O)CC1C2(C)C (stereo not drawn) | > 100 µM (inactive) | > 100 µM (inactive) | > 100 µM (inactive) | > 100 µM (inactive) | > 100 µM (inactive) | > 100 µM (inactive) | > 100 µM (inactive) | > 100 µM (inactive) | > 100 µM (inactive) | > 100 µM (inactive) | > 100 µM (inactive) | > 100 µM (inactive) | > 100 µM (inactive) | > 100 µM (inactive) | > 100 µM (inactive) |  | > 100 µM (inactive) | > 100 µM (inactive) | > 100 µM (inactive) | > 100 µM (inactive) |
| O=S(=O)(O)c1cc(O)c(/N=N/c2ccc(O)cc2O)c2ccccc12 |  | 8.97 µM (inactive) | 66.7 µM (inactive) | 76.4 µM (inactive) | 37.5 µM (inactive) | > 100 µM (inactive) | 24.1 µM (inactive) | > 100 µM (inactive) | > 100 µM (inactive) | 40.6 µM (inactive) |  | 46.8 µM (inactive) | 27.2 µM (inactive) | > 100 µM (inactive) | 38.1 µM (inactive) |  | > 100 µM (inactive) | > 100 µM (inactive) | 38.6 µM (inactive) | > 100 µM (inactive) |
| COc1ccc(-n2sc3ncccc3c2=O)cc1 | 19.9 µM (inactive) | 20.8 µM (inactive) | 23.1 µM (inactive) | 15.8 µM (inactive) | 24.7 µM (inactive) | 18.7 µM (inactive) | 17.5 µM (inactive) | 18.9 µM (inactive) | 19.4 µM (inactive) | 8.32 µM (inactive) | 19.1 µM (inactive) | 24.8 µM (inactive) | 23 µM (inactive) | 26.3 µM (inactive) | 16.9 µM (inactive) |  | > 100 µM (inactive) | 23.1 µM (inactive) | 25 µM (inactive) | 28.3 µM (inactive) |
